Tests used:
MPTP-treated mice [1] = experiment: Coat hanger test in the acute MPTP mouse model of PD; format: in vivo, C57Bl/6 male mice
MPTP-treated mice [2] = experiment: Open field test in the acute MPTP mouse model of PD; format: in vivo
Protocol: MPTP was injected intraperitoneally into mice of C57Bl/6 line every 2 h in 8 h period in one day in a dose of 20 mg/kg for a total of four doses as described before, and one additional dose of MPTP was injected on the 7th day. The studied compound PA96 was dissolved in saline containing 0.5% Tween 80 just before use. PA96 in a dose of 1 and 10 mg/kg or VEH was administrated per os 24 h after the last injection of MPTP. Then, PA96 or VEH was injected for 14 days in a 5-day-per-week regime for a total of […].
The effectiveness of the studied medications was evaluated according to their ability to reduce the symptoms of hypokinesia induced by MPTP on days 1, 7, and 14 of the experiment. Hypokinesia caused by neurotoxin administration was evaluated with the “open field” test performed for 2 min using Tru Scan (U.S.) 2 h after the administration of the studied compound, registering the main markers of the locomotor and exploratory activities: time of locomotor activity (s) and movement distance (cm).

naïve C57Bl/6 mice = experiment: Open field test in naïve mice; format: in vivo, C57Bl/6 male mice; details: 1, 10, 20 mg/kg once per os, 1 h after dosing
Protocol: The studied agent in a dose of 1 mg/kg, 10 mg/kg, and 20 mg/kg or saline was administered once per os in a water-Tween 80 solution to 8 mice per group of C57Bl/6 mice. The main markers of the locomotor activity movement distance (cm) and duration of locomotor activity (s) were registered with the open field test performed for 2 min using Tru Scan (USA), 1 h after the administration of the studied agent.

[3] = test system: nigrostriatal dopamine system of MPTP-treated mice; experiment: TH immunohistochemistry of striatum and substantia nigra in MPTP-treated mice; format: in vivo, C57Bl/6 male mice
Protocol: The samples were collected 7 days after the last administration of PA96. Mice were anesthetized using terminal phenobarbital injection (50 mg/kg), perfused trans-cardially with PBS, and then 4% paraformaldehyde in PBS in accordance with. The brains were collected, treated, and embedded into paraffin blocks using the histological complex Microm (Fürth, Germany).
To analyze the effect of PA96 in dopamine neurons in vivo, tyrosine hydroxylase immunohistochemistry was performed as described previously. The PFA-fixed and paraffin-embedded brains were cut into 5 µm thick sections (3 sections per slide), and every fifth slide was taken for TH staining. The sections were deparaffinized, followed by a citrate antigen retrieval procedure. Endogenous peroxidase was inactivated by 30 min incubation with 3% H2O2. The sections were blocked with 5% normal goat serum and then probed with monoclonal TH antibody (1:2000, Millipore Cat# MAB318 Lot# RRID:AB_2201528) overnight at +4 °C. The sections were washed, and biotinylated horse antimouse secondary antibody (1:200, Cat# BA-2001, Vector Laboratories, Burlingame, CA, USA) was applied for 1 h, followed by washing. […]
The sections were scanned with an automated scanner (3DHistech, Budapest, Hungary), and the images were converted to 16-bit grayscale. […] The integrated optical densities in images were measured in ImageJ (NIH) and divided by area in pixels.

SMILES: C=C(C)[C@@H]1CC=C(C)[C@@H](Sc2nc[nH]n2)[C@@H]1O [PA96, (1R,2R,6S)-2-(1H-1,2,4-triazol-3-ylthio)-3-methyl-6-(prop-1-en-2-yl)cyclohex-3-enol]
- antiparkinsonian activity in vivo (effective dose) (MPTP-treated mice [1]; MPTP mouse model, per os): 1 mg/kg
- coat hanger score (MPTP-treated mice [1]; MPTP-treated mice, 1 mg/kg, 60 s time point, MPTP 3.6 ± 1.0, p = 0.0324): 6.7 ± 0.2
- increase of movement time in coat hanger test (MPTP-treated mice [1]; MPTP-treated mice, 1 mg/kg, vs MPTP): 40%
- coat hanger score (MPTP-treated mice [1]; MPTP-treated mice, 10 mg/kg, p = 0.0622): trend toward increasing the score
- tolerability of repeated dosing (MPTP-treated mice [2]; 1 mg/kg and 10 mg/kg administered for 14 days): well tolerated
- duration of locomotor activity in open field (MPTP-treated mice [2]; MPTP-treated mice, 1 mg/kg, 24 h time point, p = 0.1328 vs VEH): on VEH level
- movement distance in open field (MPTP-treated mice [2]; MPTP-treated mice, 1 and 10 mg/kg per os): did not influence
- locomotor activity of naive animals (movement distance, duration) (naïve C57Bl/6 mice): did not activate
- increase of the number of TH-positive neurons in SN ([3]; 1 mg/kg, compared to MPTP-treated mice): 37%
- density of TH-positive fibers in the striatum (loss induced by MPTP) ([3]; 1 and 10 mg/kg): not alleviated

— paper PMC9738927, “A Newly Identified Monoterpenoid-Based Small Molecule Able to Support the Survival of Primary Cultured Dopamine Neurons and Alleviate MPTP-Induced Toxicity In Vivo” (Molecules, 2022)
